# Where “and” joins values, the source holds several entries; their conditions need not be identical. Equal entries are not always repeated. No end group written: not given here.
# Target: DP4.1 (HLA-DPA1*01:03/DPB1*04:01) (Homo sapiens, UniProt P04440+P20036)
# Assay: fluorescence polarization competition binding assay, DP4.1
# Conditions: not given
row,Molecule,IC50
1,CC[C@H](C)[C@H](N)C(=O)N[C@H](C(=O)N[C@H](C(=O)NCC(=O)N[C@@H](Cc1ccc(O)cc1)C(=O)N[C@@H](CCCNC(=N)N)C(=O)N[C@@H](Cc1ccccc1)C(=O)N[C@H](C(=O)N[C@@H](CC(N)=O)C(=O)N[C@@H](Cc1ccccc1)C(=O)N[C@@H](CCC(=O)O)C(=O)N1CCC[C@H]1C(=O)N[C@@H](Cc1ccccc1)C(=O)N[C@H](C(=O)O)[C@@H](C)O)[C@@H](C)O)[C@@H](C)O)[C@@H](C)O [Peptide P5],< 1 µM and 0.3 µM
2,CC(C)C[C@H](NC(=O)CNC(=O)[C@H](CO)NC(=O)[C@@H](NC(=O)[C@@H](NC(=O)[C@@H](NC(=O)[C@H](CCCCN)NC(=O)[C@H](CO)NC(=O)[C@H](Cc1ccccc1)NC(=O)[C@H](CC(C)C)NC(=O)[C@H](CC(C)C)NC(=O)[C@H](CC(=O)O)NC(=O)[C@H](CCC(=O)O)NC(=O)[C@H](CC(C)C)NC(=O)[C@H](C)NC(=O)[C@@H](N)CO)C(C)C)C(C)C)[C@@H](C)O)C(=O)NCC(=O)O [NL63-146],3.48 µM
3,CC[C@H](C)[C@H](NC(=O)CNC(=O)[C@H](CC(N)=O)NC(=O)[C@@H](NC(=O)[C@H](Cc1ccccc1)NC(=O)[C@H](CC(=O)O)NC(=O)[C@H](CO)NC(=O)[C@@H](N)CC(C)C)[C@@H](C)CC)C(=O)N[C@@H](Cc1ccccc1)C(=O)N[C@@H](C)C(=O)N[C@@H](CCCCN)C(=O)N[C@H](C(=O)N[C@@H](CCCCN)C(=O)N[C@@H](CC(N)=O)C(=O)N[C@H](C(=O)N[C@@H](CCCCN)C(=O)O)[C@@H](C)O)C(C)C [Peptide P3],3.16 µM
4,CC[C@H](C)[C@H](NC(=O)[C@H](C)NC(=O)[C@H](CO)NC(=O)[C@H](CCCNC(=N)N)NC(=O)CNC(=O)[C@H](C)NC(=O)[C@@H](NC(=O)[C@@H](N)CCCNC(=N)N)C(C)C)C(=O)N[C@@H](CCC(=O)O)C(=O)N[C@@H](CC(=O)O)C(=O)N[C@H](C(=O)N[C@@H](CC(C)C)C(=O)N[C@@H](Cc1ccccc1)C(=O)N[C@@H](CO)C(=O)N[C@@H](CCCCN)C(=O)N[C@@H](CC(C)C)C(=O)N[C@H](C(=O)O)C(C)C)[C@@H](C)CC [Peptide 229E-115],5.99 µM

# Same assay, conditions: fluorescence polarization competition; soluble DP4.1-Clip 250 nM, 25 nM Alexa488 oxytocinase probe peptide, 500 nM HLA-DM, 24 h 37°C; mean of two independent experiments; read-out: Mean IC50, DPA*01:03/DPB1*04:01
row,Molecule,IC50 [µM]
1,YVYSRVKNLNSSRVPDL [E#9 (CoV2)],661
2,CC[C@H](C)[C@H](NC(=O)[C@@H](NC(=O)[C@@H](N)CO)[C@@H](C)CC)C(=O)N[C@@H](C)C(=O)N[C@@H](Cc1ccc(O)cc1)C(=O)N[C@H](C(=O)N[C@@H](CCSC)C(=O)N[C@@H](CO)C(=O)N[C@@H](CC(C)C)C(=O)NCC(=O)N[C@@H](C)C(=O)N[C@@H](CCC(=O)O)C(=O)N[C@@H](CC(N)=O)C(=O)N[C@@H](CO)C(=O)N[C@H](C(=O)N[C@@H](C)C(=O)O)C(C)C)[C@@H](C)O [S#139 (CoV2)],292
3,CC[C@H](C)[C@H](NC(=O)[C@H](CO)NC(=O)[C@H](CCC(N)=O)NC(=O)[C@H](CO)NC(=O)[C@H](C)NC(=O)[C@@H](NC(=O)[C@@H](N)CO)C(C)C)C(=O)N[C@H](C(=O)N[C@@H](C)C(=O)N[C@@H](Cc1ccc(O)cc1)C(=O)N[C@H](C(=O)N[C@@H](CCSC)C(=O)N[C@@H](CO)C(=O)N[C@@H](CC(C)C)C(=O)NCC(=O)N[C@@H](C)C(=O)O)[C@@H](C)O)[C@@H](C)CC [S#138 (CoV2)],438
4,CC(C)C[C@H](NC(=O)[C@H](Cc1ccccc1)NC(=O)[C@@H](NC(=O)[C@@H](NC(=O)CNC(=O)[C@H](Cc1c[nH]cn1)NC(=O)[C@@H]1CCCN1C(=O)[C@H](C)N)C(C)C)C(C)C)C(=O)N[C@@H](Cc1c[nH]cn1)C(=O)N[C@H](C(=O)N[C@H](C(=O)N[C@@H](Cc1ccc(O)cc1)C(=O)N[C@H](C(=O)N1CCC[C@H]1C(=O)N[C@@H](C)C(=O)N[C@@H](CCC(N)=O)C(=O)O)C(C)C)[C@@H](C)O)C(C)C [S#212 (CoV2)],253
5,CC(C)C[C@H](NC(=O)[C@@H](NC(=O)[C@@H]1CCCN1C(=O)[C@@H](N)CC(N)=O)C(C)C)C(=O)N1CCC[C@H]1C(=O)N[C@@H](Cc1ccccc1)C(=O)N[C@@H](CC(N)=O)C(=O)N[C@@H](CC(=O)O)C(=O)NCC(=O)N[C@H](C(=O)N[C@@H](Cc1ccc(O)cc1)C(=O)N[C@@H](Cc1ccccc1)C(=O)N[C@@H](C)C(=O)N[C@@H](CO)C(=O)N[C@H](C(=O)N[C@@H](CCC(=O)O)C(=O)O)[C@@H](C)O)C(C)C [S#17 (CoV2)],76

# Source: publication PMC10409285 (PLOS Pathogens, 2023)
